Structures are written as SMILES. Like-named read-outs stand apart in the source and are kept apart here.

For this assay, the target named is recombinant eIF4E (Homo sapiens (Human), UniProt P06730). The assay can be described thus: Fluorescence polarization competition assay for eIF4E binding potency. As for the experimental part:
Compounds were screened for eIF4E binding potency using a fluorescence polarization competition assay. All binding reactions were performed in fluorescence polarization buffer (FPB) containing 20 mM Tris pH 7.5, 100 mM NaCl, 1 mM DTT, and 0.02% Tween-20. Final binding reactions contained 75 nM recombinant eIF4E (Beryllium, custom order), 20 nM EDA-m^7GDP-ATTO-550 (Jena Bioscience, NU-827-550) and varying concentrations of the inhibitory compound of interest. Final DMSO concentration in each reaction was 1%.
eIF4E protein was pre-incubated with EDA-m^7GDP-ATTO-550 in FPB at 2× concentrations for 5 minutes prior to the addition of compounds. Compounds (100×) were prepared using 3-fold serial dilutions in 100% DMSO, and subsequently diluted 1:50 in FPB to produce 2× stocks. 50 μl of 2× eIF4E/EDA-m^7GDP-ATTO-550 were transferred to the wells of a 96-well half-area black flat bottom polystyrene plate. 50 μl of 2× test compound were added, and binding reactions were allowed to equilibrate for 30 minutes at room temperature while protected from light. The fluorescent polarization signal was detected using a Victor 2 multi-label counter (Perkin Elmer) and the concentration necessary to achieve inhibition of eIF4E/EDA-m^7GDP-ATTO-550 binding by 50% (IC50) was calculated using data from an 8-point compound dilution series.
In Table 4A, IC50 values of less than 0.05 μM are labelled as “+++”, from 1 to 0.05 μM are labelled as “++”, and greater than 1 μM are labelled as “+”. ND=not determined.
A general note: Fluorescence polarisation rises when a labelled molecule tumbles more slowly, as on binding a larger partner.

[1] abbreviates: fluorescence polarization competition, 75 nM recombinant eIF4E, 20 nM EDA-m7GDP-ATTO-550, IC50 class, read-out: elF4E FP.
[2] abbreviates: inhibition of eIF4E/EDA-m7GDP-ATTO-550 binding by 50%, Table 4B calculated values, read-out: IC50.
Setting [3] is: inhibition of eIF4E/EDA-m7GDP-ATTO-550 binding, calculated IC50 values, Table 4B, read-out: IC50.

Chain of recombinant eIF4E (P06730 whole entry): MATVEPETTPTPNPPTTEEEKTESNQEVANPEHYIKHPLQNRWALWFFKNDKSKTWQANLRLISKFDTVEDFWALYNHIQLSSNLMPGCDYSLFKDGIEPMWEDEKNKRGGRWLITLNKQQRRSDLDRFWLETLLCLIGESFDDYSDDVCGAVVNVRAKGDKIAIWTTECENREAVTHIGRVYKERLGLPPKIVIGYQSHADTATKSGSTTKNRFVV

With `Cc1ccc(-c2cc(Cl)ccc2OCCn2c(C)nc3cc(C(F)(F)F)c(CN4CCN(C)CC4)c(C#N)c3c2=O)c2scc(C(=O)O)c12` [compound 719], the IC50 runs as follows: under setting [1], under 0.05 µM; under setting [2], 0.0285 µM.

Regarding `Cc1nc2cnc(N3CCN(C4(C(F)F)CC4)CC3)c(C#N)c2c(=O)n1CCOc1ccc(Cl)cc1-c1ccnc2c(C(=O)O)csc12` [compound 1310], under setting [3], the IC50 is 0.0213 µM.

Turning to `Cc1nc2cc(C(F)(F)F)cc(C#N)c2c(=O)n1CCOc1ccc(Cl)cc1-c1ccnc2c(C(=O)O)cn(C)c12` [compound 320], the IC50 was under 0.05 µM under setting [1] and 0.0435 µM under setting [2].

For `Cc1cc(-c2cc(Cl)ccc2OCCn2c(C)nc3cnc(OC4CN(C)C4)c(C#N)c3c2=O)c2sc(C)c(C(=O)O)c2n1` [compound 846], the IC50 is under 0.05 µM under setting [1] and 0.0379 µM under setting [2].

Take `Cc1nc2cnccc2c(=O)n1CCOc1ccc(Cl)cc1-c1cccc(C(=O)O)c1` [compound 1]: the IC50 reads like this: under setting [1], 0.05 to 1 µM; under setting [2], 0.281 µM.

`Cc1nc2cnc(N3CCN(C)C(C)(C)C3)c(C#N)c2c(=O)n1CCOc1ccc(Cl)cc1-c1ccnc2c(C(=O)O)csc12` [compound 815]: the IC50 is, setting by setting: under setting [1], under 0.05 µM; under setting [2], 0.00331 µM.

For `Cc1nc2cc(C(F)(F)F)c(CN(C)C)c(F)c2c(=O)n1CCOc1ccc(Cl)cc1-c1ccnc2c(C(=O)O)csc12` [compound 621], the IC50 is 0.05 to 1 µM under setting [1] and 0.06 µM under setting [2].

Take `CCN(c1ncc2nc(C)n(CC#Cc3ccc(Cl)cc3-c3ccnc4c(C(=O)NS(=O)(=O)c5ccccn5)csc34)c(=O)c2c1C#N)C1CCN(C2COC2)CC1` [compound 1742]: under setting [3], the IC50 was 0.00543 µM.

As to `Cc1cc(-c2cc(Cl)ccc2OCCn2c(C)nc3cc(C(F)(F)F)c(-c4cncc(C(F)(F)F)n4)c(C#N)c3c2=O)c2scc(C(=O)O)c2n1` [compound 1026], the IC50 was under 0.05 µM under setting [1] and 0.0155 µM under setting [2].

On to `Cc1cc(-c2cc(Cl)ccc2OCCn2c(C)nc3cc(OC(F)F)cc(C#N)c3c2=O)c2scc(C(=O)NS(C)(=O)=O)c2n1` [compound 580], for which the IC50 was under 0.05 µM under setting [1] and 0.0242 µM under setting [2].

On to `Cc1cc(-c2cc(Cl)ccc2OCCn2c(C)nc3cnc(-c4cccc(Cl)c4)c(C#N)c3c2=O)c2scc(C(=O)O)c2n1` [compound 948], for which the IC50 is, setting by setting: under setting [1], under 0.05 µM; under setting [2], 0.0183 µM.

`Cc1nc2cc(C(F)(F)F)cc(C#N)c2c(=O)n1CCOc1ccc(Cl)cc1-c1ccnc2c(CC(=O)O)csc12` [compound 202]: the IC50 is, setting by setting: under setting [1], under 0.05 µM; under setting [2], 0.0474 µM.

Regarding `Cc1cc(-c2cc(Cl)ccc2OCCn2c(C)nc3cc(Cl)c(N(C)C4CC4)c(C#N)c3c2=O)c2scc(C(=O)O)c2n1` [compound 957], the IC50 under setting [1] was under 0.05 µM and the IC50 under setting [2] was 0.00581 µM.

In the case of `Cc1cc(-c2cc(Cl)ccc2OCCn2c(C)nc3cc(C(F)(F)F)c(N4CCC(C)CC4)nc3c2=O)c2scc(C(=O)O)c2n1` [compound 800], the IC50 runs as follows: under setting [1], under 0.05 µM; under setting [2], 0.0324 µM.

For the molecule `Cc1cc(-c2cc(Cl)ccc2OCCn2c(C)nc3cc(C(F)F)c(N4CC(F)(F)C4)c(C#N)c3c2=O)c2scc(C(=O)O)c2n1` [compound 799], the IC50 by setting is: under setting [1], under 0.05 µM; under setting [2], 0.00935 µM.

Take `Cc1nc2c(F)c(Cl)c(C(F)F)c(C#N)c2c(=O)n1CCOc1ccc(Cl)cc1-c1ccnc2c(C(=O)O)csc12` [compound 498]: the IC50 under setting [1] is under 0.05 µM and the IC50 under setting [2] is 0.0242 µM.

In the case of `Cc1cc(-c2cc(Cl)ccc2OCCn2c(C)nc3cc(C(F)(F)F)c(N4CC(C)(O)C4)c(C#N)c3c2=O)c2scc(C(=O)O)c2n1` [compound 1055], the IC50 under setting [1] was under 0.05 µM and the IC50 under setting [2] is 0.0117 µM.

In the case of `Cc1nc2cnc(N3CCN(CC4(C(F)(F)F)CC4)CC3)c(C#N)c2c(=O)n1CCOc1ccc(Cl)cc1-c1ccnc2c(C(=O)O)csc12` [compound 1471], the IC50 under setting [3] is 0.0142 µM.

On to `Cc1nc2cc(C(F)(F)F)c(CC3CN(CC(F)F)C3)c(C#N)c2c(=O)n1CCOc1ccc(Cl)cc1-c1ccnc2c(C(=O)O)csc12` [compound 376], for which the IC50 by setting is: under setting [1], under 0.05 µM; under setting [2], 0.0127 µM.

As to `Cc1nc2c(N3CCN(C4(C(F)F)COC4)CC3)ncc(C#N)c2c(=O)n1CCOc1ccc(Cl)cc1-c1ccnc2c(C(=O)O)csc12` [compound 1397], the IC50 under setting [3] was 0.0147 µM.

For `Cc1cc(-c2cc(Cl)ccc2OCCn2c(C)nc3cc(C(F)F)c(-c4cc(F)cnc4C)c(C#N)c3c2=O)c2scc(C(=O)O)c2n1` [compound 438], the IC50 is under 0.05 µM under setting [1] and 0.00916 µM under setting [2].

For `CCc1cccc(-c2c(C(F)(F)F)cc3nc(C)n(CCOc4ccc(Cl)cc4-c4cc(C)nc5c(C(=O)O)csc45)c(=O)c3c2C#N)n1` [compound 776], the IC50 is, setting by setting: under setting [1], under 0.05 µM; under setting [2], 0.0365 µM.

For the molecule `O=C(O)c1cccc(-c2cc(Cl)ccc2OCCn2cnc3ncncc3c2=O)c1` [compound 17], the IC50 was 0.05 to 1 µM under setting [1] and 0.721 µM under setting [2].

Turning to `CCN(c1ncc2nc(C)n(CC#Cc3ccc(Cl)cc3-c3ccnc4c(C(=O)NS(=O)(=O)c5cccnc5)csc34)c(=O)c2c1C#N)C1CCN(C2CC(F)(F)C2)CC1` [compound 1839], the IC50 under setting [3] is 0.0345 µM.

For the molecule `Cc1nc2cc(C(F)(F)F)c(CN(C)C)c(C#N)c2c(=O)n1CCOc1ccc(Cl)cc1-c1ccnc2c(C(=O)O)csc12` [compound 261], the IC50 is, setting by setting: under setting [1], under 0.05 µM; under setting [2], 0.042 µM.

Take `CCN(c1ncc2nc(C)n(CC#Cc3ccc(Cl)cc3-c3ccnc4c(C(=O)NS(=O)(=O)C5CC5)csc34)c(=O)c2c1C#N)C1CCN(C2COC2)CC1` [compound 1749]: the IC50 under setting [3] is 0.0164 µM.

On to `Cc1nc2cnc(N(C)C3CCN(C4(COC(F)F)CC4)CC3)c(C#N)c2c(=O)n1CC#Cc1ccc(Cl)cc1-c1ccnc2c(C(=O)O)csc12` [compound 1504], for which, under setting [3], the IC50 was 0.0136 µM.

In the case of `Cc1cc(-c2cc(Cl)ccc2OCCn2c(C)nc3cc(C(F)(F)F)cc(C#N)c3c2=O)cc(C(=O)O)n1` [compound 410], the IC50 is 0.05 to 1 µM under setting [1] and 0.0626 µM under setting [2].

As to `Cc1nc2cc(C(F)(F)F)cc(C#N)c2c(=O)n1CCOc1ccc(Cl)cc1-c1nsc2c(C(=O)O)csc12` [compound 315], the IC50 was 0.05 to 1 µM under setting [1] and 0.582 µM under setting [2].

Turning to `Cc1nc2cc(C(F)(F)F)c(N3CCN(C)CC3)nc2c(=O)n1CCOc1ccc(Cl)cc1-c1ccnc2c(C(=O)NS(C)(=O)=O)csc12` [compound 1155], the IC50 runs as follows: under setting [1], under 0.05 µM; under setting [2], 0.0181 µM.

Regarding `Cc1nc2cc(C(F)(F)F)c(N3CC4(C3)CN(C3CC3)C4)c(C#N)c2c(=O)n1CC#Cc1ccc(Cl)cc1-c1ccnc2c(C(=O)O)csc12` [compound 1570], the IC50 under setting [3] was 0.0229 µM.

For the molecule `Cc1nc2cnc(N3CCN(C)C4CC43)c(C#N)c2c(=O)n1C/C=C/c1ccc(Cl)cc1-c1ccnc2c(C(=O)O)csc12` (centres unmarked) [compound 1347], the IC50 under setting [3] was 0.0414 µM.

In the case of `Cc1nc2cnc(NC3CCCCC3)cc2c(=O)n1CCOc1ccc(Cl)cc1-c1cccc(C(=O)O)c1` [compound 2003], the IC50 under setting [3] was 0.264 µM.

Take `CCc1cc(-c2cc(Cl)ccc2OCCn2c(C)nc3cnc(N4CCNC5CC54)c(C#N)c3c2=O)c2scc(C(=O)O)c2n1` (centres unmarked) [compound 1220]: the IC50 was under 0.05 µM under setting [1] and 0.0131 µM under setting [3].

`CCc1nc(C)c2nc(C)n(CCOc3ccc(Cl)cc3-c3cc(C)nc4c(C(=O)O)csc34)c(=O)c2c1C#N` [compound 850]: the IC50 under setting [1] is under 0.05 µM and the IC50 under setting [2] was 0.0177 µM.

`Cc1nc2cnc(N(C)C3CCN(C4(C(F)F)CC4)CC3)c(C#N)c2c(=O)n1CCOc1ccc(Cl)cc1-c1ccnc2c(C(=O)O)csc12` [compound 1430]: under setting [3], the IC50 is 0.0228 µM.

With `CC(=O)Nc1ccc(-c2cc(Cl)ccc2OCCn2cnc3cnc(C#N)cc3c2=O)cc1C(=O)O` [compound 103], the IC50 reads like this: under setting [1], 0.05 to 1 µM; under setting [2], 0.747 µM.

For `Cc1cc(-c2cc(Cl)ccc2OCCn2c(C)nc3cc(C(F)F)c(C4CC4)c(C#N)c3c2=O)c2scc(C(=O)O)c2n1` [compound 1048], the IC50 under setting [1] was under 0.05 µM and the IC50 under setting [2] is 0.0137 µM.

With `CNC(=O)c1cc2c(=O)n(CCOc3ccc(Cl)cc3-c3cccc(C(=O)O)c3)cnc2cn1` [compound 132], the IC50 reads like this: under setting [1], 0.05 to 1 µM; under setting [2], 0.624 µM.

Consider `Cc1sc2c(-c3cc(Cl)ccc3OCCn3c(C)nc4cc(S(C)(=O)=O)c(N5CCN(C)CC5)c(C#N)c4c3=O)ccnc2c1C(=O)O` [compound 1294], for which the IC50 under setting [3] was 0.0559 µM.

On to `Cc1nc2cnc(N3CC4(CCN4CC(F)F)C3)c(C#N)c2c(=O)n1CCOc1ccc(Cl)cc1-c1ccnc2c(C(=O)O)csc12` [compound 1634], for which the IC50 under setting [3] was 0.0174 µM.

Take `Cc1cc(-c2cc(Cl)ccc2OCCn2c(C)nc3cc(C(F)(F)F)c(-c4ccccn4)nc3c2=O)c2scc(C(=O)O)c2n1` [compound 462]: the IC50 was under 0.05 µM under setting [1] and 0.0105 µM under setting [2].

Source of the values: patent US11286268B1, “EIF4E-inhibiting compounds and methods” (EFFECTOR THERAPEUTICS, INC., priority 2019, dated 2022).
